Data taken from a melting point compilation (Tetko et al.; mined from patent text by program, amines drawn as free bases though some values may be those of a salt).

Compound | melting point [°C]
NC(=O)c1sc2nccc(N3CCCC(O)C3)c2c1N (stereo not drawn) | 208 to 211
CSC(=NS(=O)(=O)c1cccnc1)SC | 115 to 118
COC(=O)C(=O)c1ccnc(NC=O)n1 | 143 to 144
Cc1nc2ccc(NS(=O)(=O)c3cccc(Cl)c3C)cc2nc1C | 225 to 226
CC(O)Cn1nc2c3c(cc(O)cc31)CCC2 (stereo not drawn) | 153 to 155
CC(C)CCC(O)C(CC1CCCCC1)NC(=O)C(Cc1c[nH]cn1)N(C)C(=O)C(Cc1ccccc1)NC(=O)N(C)CCN(C)C(=O)N1CCOCC1 (stereo not drawn) | 89 to 92
CCC(=CC(CNC(=O)c1nc[nH]c1C)=NO)C(C)[N+](=O)[O-] (stereo not drawn) | 125 to 127
CC(C)(C)OC(=O)N1CC[C@H](O)[C@H](F)C1 (relative stereo) | 48
Nc1nc2cc(F)ccc2s1 | 167
N#Cc1cc2c([nH]c1=O)CCc1ccccc1-2 | 301 to 303
Cc1coc2c1C(=O)CC(c1ccccc1F)C2 (stereo not drawn) | 71 to 72
CC(C)Sc1cc2c(cc1Cl)N=C(c1ccncc1)NS2(=O)=O | 254 to 256
O=C(O)c1csc(-c2ccc3cc(O)c(C45CC6CC(CC(C6)C4)C5)cc3c2)c1 | 312 to 314
COc1cc(Nc2c(C#N)cnc3cc(-c4cccc(CN5CCOCC5)c4)sc23)c(Cl)cc1Cl | 205 to 207
NC(=O)c1cc(NCc2ccc(Cl)cc2)c([N+](=O)[O-])cc1[N+](=O)[O-] | 207 to 210
CCOCc1nc2c(N)nc3c(c2n1CCCCS(=O)(=O)NC)CCCC3 | 188 to 192
CCOC(=O)c1c(C)nn(-c2cccc(N)c2)c1C | 93 to 95
COc1c(C=O)c(C)cc2c1C(C)(C)CCC2(C)C | 78
Cc1c(Nc2ccc(Br)cc2C(=O)O)cccc1C(F)(F)F | 223 to 225
CCCOc1ccccc1C1=NC(=O)C2=NC(C)=NC2=N1 | 264 to 265

Compound | melting point [°C]
C=C(CCC)C(=O)c1ccc(OCC(=O)O)c(Cl)c1Cl | 111 to 113
CN1C2=NCCN2C(=O)c2cccnc21 | 168 to 171
N#Cc1c(Br)[nH]c(Br)c1Br | 151 to 152
CCC1C(=O)N2CCCC(C(=O)OC(C)(C)C)N2C1=O (stereo not drawn) | 93 to 95
CC(=O)OC1CCCC(n2c(Br)nc3cc(Cl)c(Cl)cc32)C1OC(C)=O (stereo not drawn) | 71 to 79
CCCCCCCCCCCC(=O)c1ccc(-c2ccc(OC)c(F)c2)cc1 | 124 to 125
O=C(O)c1ccc(CCCC2SCC(=O)N2CCC2(O)CCCCC2)s1 (stereo not drawn) | 122 to 123
CCCCC(=N)NC(=O)N(C)c1ccc(Cl)cc1 | 59 to 61
COc1ccc(C(=O)Nc2c(Cl)cncc2Cl)c2c1oc1ccc(Br)cc12 | 308
CON(C)C(=O)Nc1ccc(OCCc2ccc(C(C)(C)C)cc2)cc1 | 14 to 15
Cc1noc(-c2nnc3c4ccccc4c(OCc4ncn(C)n4)nn23)n1 | 283 to 285
Clc1ccc(N2CCN(CCc3ccccc3)CC2)nn1 | 140
O=CN1CCN(c2cc3c(cc2F)c(=O)c(C(=O)O)c2sccn23)CC1 | 335 to 336
CCOC(=O)N1CCc2nc3c(O)c(Br)cc(Br)c3c(C)c2CC1 | 179
O=C(N[C@H]1CCCNC1=O)c1cccc(C(F)(F)F)c1 | 148 to 150
N#Cc1nn(-c2c(Cl)cc(-c3ccc(C(F)(F)F)cc3)cc2Cl)c(N)c1Br | 178 to 180
CCCCn1c(=O)c2cc(C(=O)O)cn2c2cc(Cl)ccc21 | 275 to 276
CCCN1CCc2[nH]c3ccc4sccc4c3c2C1 | 143 to 144
COc1cc2cc([N+](=O)[O-])ccc2c([N+](=O)[O-])c1O | 239 to 242
CC(C)[C@H](NCc1ccc(Br)cc1)C(=O)O | 239 to 241

Compound | melting point [°C]
C#CC(C)(C)OC(=O)Nc1ccc(-c2ncn(-c3ccc(OC(F)(F)F)cc3)n2)cc1 | 164 to 165
NC1CSC(c2cccs2)CNC1=O (stereo not drawn) | 157
Fc1ccc(-c2cc(N3CCN(C4CC4)CC3)nc3c2CCCCCC3)cc1 | 125 to 128
c1ccc(Sc2c[nH]c3ncccc23)cc1 | 188 to 189
Cn1nc(C(C)(C)C)cc1O | 150
COc1ncc(C(F)(F)F)cc1-c1cccn2nc(Nc3ccc(C4CCNCC4)cc3)nc12 | 106 to 108
CCOC(=O)CC(=Nc1cc([N+](=O)[O-])ccc1Cl)OC | 60 to 62
COCc1nc(NC(=O)NS(=O)(=O)c2ccccc2C(=O)OC)nc(SC)n1 | 147 to 149
CCCc1ccnc2c(=O)[nH]c(-c3cc(S(=O)(=O)N4CCN(C)CC4)ccc3OCC)nc12 | 211 to 212
COc1ccc(C(=O)c2ccc(Cl)c(S(N)(=O)=O)c2)cc1 | 156 to 158
c1cc(NC2=NCCN2)ccc1Cc1ccc(N2CCOCC2)cc1 | 177 to 179
COC(=O)CC(=O)c1ccc2c(c1)CCC(=O)N2C | 175 to 176
C=CCOCc1ccc([N+](=O)[O-])cc1Nc1nccc(-c2cccnc2)n1 | 213 to 215
CCS(=O)(=O)Oc1ccc(C(C)(C)C)cc1C(C)(C)C | 76
CCOC(=O)C(C)c1ccc2oc(C(=O)c3ccc(Cl)cc3)nc2c1 (stereo not drawn) | 66 to 67
COC(=O)c1cc(S(C)(=O)=O)c(Cl)cc1C | 151
OCc1conc1-c1ccc(C(F)(F)F)cc1 | 70 to 71
CC(C)(C)OC(=O)[C@H](CC1CC1)N1C(=O)NC(C(F)(F)F)(C(F)(F)F)C1=O | 76 to 77

The next lines start with the values.

melting point [°C] | Compound
38.1 to 38.7 | CCCCc1ccc(C=Nc2ccc(C#N)cc2)cc1
146 | CCCN(c1cc(C)ccn1)c1cccc2c1OC[C@H]2Nc1ccc2c(c1)OC[C@H]2CC(=O)O
157 to 160 | O=C(Oc1ccccc1C(=O)Nc1cc(Cl)c(OC(=O)c2ccccc2)c(Cl)c1)c1ccccc1
169 to 171 | Cc1csc(N2C(=O)C(Cc3ccccc3)NC2=S)n1 (stereo not drawn)
162 | O=C(O)Cc1cc(OCc2ccc3ccccc3n2)ccc1Nc1c(Cl)cccc1Cl
114 | COc1ccccc1CNc1ccc2cc(Nc3nccc(C(F)(F)F)n3)ccc2n1
300 | Cn1c(=O)[nH]c(=O)c2nc(-c3ccc(/C=C/C(=O)O)cc3)[nH]c21
231 to 233 | Cc1cc(C(=O)c2ccccc2)c(-n2c(C)nnc2CNC(=O)c2cc3ccccc3[nH]2)s1
168 to 171 | O=C1C(=O)N(C(c2ccccc2)c2ccccc2)c2cccc(F)c21
60 to 65 | CC(C)CCc1c(-c2ccc(S(C)(=O)=O)cc2)cnn(-c2cccc(Cl)c2)c1=O
154 | COc1ccc(S(=O)(=O)N2Cc3[nH]c4ccccc4c3CC2C(=O)O)cc1 (stereo not drawn)
213 to 214 | CC1C(Cc2ccccc2)C(=O)N(Cc2ccccc2)c2ccccc2N1C(=O)CN1C(=O)c2ccccc2C1=O (stereo not drawn)
129 to 130 | Cc1c(Cc2ccccc2)c2c(c(C)c1NC(=O)CC(C)(C)C)CC(C)(C)O2
99 to 101 | CCOc1ccc(C2=NN(C3CCN(S(=O)(=O)c4ccc(C)cc4)CC3)C(=O)[C@@H]3CC=CC[C@H]23)cc1OCC
190 | Cc1cc(COc2ccc(C(=O)NC[C@@H](C(=O)NO)N3CCCCC3)cc2)c2ccccc2n1
136 to 138 | CCCc1nc2cc([N+](=O)[O-])ccc2n1Cc1ccc(C(=O)OCC)cc1
156 to 158 | O=C(O)c1ccc(OC2=C3N=C4CCCCC4=C3C(Cc3ccc(Br)cc3)C=C2)o1 (stereo not drawn)
89 to 91 | CCOC(=O)c1cnc2c(cnn2-c2ccccc2)c1Cl
187 to 188 | Cc1ccn(-c2ccc(S(N)(=O)=O)cc2)c1-c1ccc(F)cc1
180 to 182 | O=C(c1ccc(-c2ccccc2)cc1)N1Cc2ccccc2Nc2ccccc21

melting point [°C] | Compound
79 to 83 | COc1ccccc1N1CCN(CCCNC(=O)c2cccc3c2OC(C2CCCCC2)CC3)CC1 (stereo not drawn)
178 to 187 | Cc1ccc(C(=O)c2ccc(C(=O)c3ccc(C)cc3)cc2)cc1
181 to 182 | N#Cc1ccc(Nn2cnnc2)cc1-c1ccccc1
103 to 105 | CCOC(=O)c1c(C)cc2nc(CSC(C)=O)n(-c3ccccc3Cl)c(=O)c2c1C
176 | COc1ccc(C(=O)N2CCCCC2)c(NC(=O)N[C@@H](Cc2ccc(NC(=O)c3c(Cl)cccc3Cl)cc2)C(=O)O)c1
105 to 107 | COc1ccc2c(c1)N(Cc1ccccc1)C(=O)C1CCCC1=N2 (stereo not drawn)
181 to 184 | COC1=CC(=O)N(Cc2ncn(C(c3ccccc3)(c3ccccc3)c3ccccc3)c2C)CC1
63 to 73 | Cn1c(-c2ccc(-n3ccnc3)cc2)cnc1[C@H](Cc1ccccn1)N(C=O)c1cc2cc(Cl)ccc2o1
94 to 95 | COCCNC(=O)c1cccc(-c2cccc3cc(Cc4ccc(F)cc4F)sc23)c1
68 to 70 | CCCCCCCCCCOc1cc(OCCCOc2ccc(OCc3ccccc3)cc2)cc(C(=O)OC)c1
169 to 170 | NC(=O)c1cc(-c2cccc3cc(Cc4cccc(C(F)(F)F)c4)sc23)ccc1F
177 to 178 | O=C(Nc1ccc(CN2CCCCC2)cc1)c1ccc2ccc(-c3ccccc3)cc2c1
60 to 62 | CCOP(=O)(CCC(OC)(C(=O)c1ccccc1)c1ccccc1)OCC (stereo not drawn)
93 to 96 | Cc1onc(-c2ccc(Br)o2)c1-c1ccccc1
128 to 133 | CC(=O)C(Cc1ccccc1)(N=Nc1ccc(C(O)(C(F)(F)F)C(F)(F)F)cc1)C(N)=O (stereo not drawn)
> 300 | Cn1ncc(/C=C/C(=O)Nc2ccc3[nH]c(=O)oc3c2)c1-c1ccc(F)cc1
114 to 116 | CN(Cc1cc(C(F)(F)F)cc(C(F)(F)F)c1)C(=O)c1cnc(CC#N)nc1-c1ccccc1
162 to 163 | COc1ccc(S(=O)(=O)Nc2ccccc2NC(=O)c2ccncc2)cc1
90 to 91 | O=C1NC(=O)C(Nc2ccc(CCNCC(O)COc3ccc4ccccc4c3)cc2)S1 (stereo not drawn)
174 to 175 | COc1ccc(-c2cc3ccccc3[nH]2)cc1NC(=S)Nc1cccc(CC(=O)O)c1
